Reference: patent publication US8450327B2, “CGRP antagonists” (Boehringer Ingelheim International GmbH, priority 2007, dated 2013)

Target: T1, human CGRP receptor (Homo sapiens, UniProt O60894+Q16602)
T1 construct: SK-N-MC cells are cultivated in “Dulbecco's modified Eagle medium”; endogenous in cells; host or cells: SK-N-MC cells (membrane homogenate)
Experiment: Binding studies with SK-N-MC cells (expressing the human CGRP receptor), 125I-CGRP displacement on membranes
Conditions: SK-N-MC cell membranes, 50 pM 125I-iodotyrosyl-CGRP, 180 min at ambient temperature
Procedure: A. Binding Studies with SK-N-MC Cells (Expressing the Human CGRP Receptor)
SK-N-MC cells are cultivated in “Dulbecco's modified Eagle medium”. The medium is removed from confluent cultures. The cells are washed twice with PBS buffer (Gibco 041-04190 M), detached by the addition of PBS buffer mixed with 0.02% EDTA, and isolated by centrifuging. After resuspension in 20 ml of “Balanced Salts Solution” [BSS (in mM): NaCl 120, KCl 5.4, NaHCO3 16.2, MgSO4 0.8, NaHPO4 1.0, CaCl2 1.8, D-glucose 5.5, HEPES 30, pH 7.40] the cells are centrifuged twice at 100×g and resuspended in BSS. After the number of cells has been determined, the cells are homogenised using an Ultra-Turrax and centrifuged for 10 minutes at 3000×g. […]
After thawing, the homogenised product is diluted 1:10 with assay buffer (50 mM Tris, 150 mM NaCl, 5 mM MgCl2, 1 mM EDTA, pH 7.40) and homogenised for 30 seconds with an Ultra-Turrax. […] The protein-bound radioactivity is measured using a gamma counter. Non-specific binding is defined as the bound radioactivity after the presence of 1 μM human CGRP-alpha during incubation.
The concentration binding curves are analysed using computer-aided non-linear curve fitting.

T1 sequence (Q16602 23-461): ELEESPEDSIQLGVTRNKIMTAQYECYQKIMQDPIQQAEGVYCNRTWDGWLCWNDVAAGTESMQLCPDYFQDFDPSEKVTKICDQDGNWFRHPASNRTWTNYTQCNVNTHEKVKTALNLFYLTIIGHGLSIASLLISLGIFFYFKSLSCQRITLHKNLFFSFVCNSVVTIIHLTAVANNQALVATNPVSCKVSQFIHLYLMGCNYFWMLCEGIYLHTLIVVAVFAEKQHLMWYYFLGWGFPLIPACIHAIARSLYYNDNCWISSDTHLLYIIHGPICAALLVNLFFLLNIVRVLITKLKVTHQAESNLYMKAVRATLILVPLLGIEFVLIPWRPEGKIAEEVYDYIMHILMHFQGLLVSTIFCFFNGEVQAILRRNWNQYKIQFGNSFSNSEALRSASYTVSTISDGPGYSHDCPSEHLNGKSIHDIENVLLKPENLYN
T1 sequence (O60894 27-148): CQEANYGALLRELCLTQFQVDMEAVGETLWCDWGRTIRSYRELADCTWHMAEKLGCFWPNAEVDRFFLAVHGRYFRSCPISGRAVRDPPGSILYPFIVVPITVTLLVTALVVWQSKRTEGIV

Ki [nM]	Compound
6	Cc1cc(C(=O)c2cc(N3CCC4(CC3)NC(=O)Nc3ccccc34)ncn2)cc2oc(=O)[nH]c12 [Example 1, 4-methyl-6-(6-(2′-oxo-2′,3′-dihydro-1′H-spiro[piperidin-4,4′-quinazolin]-1-yl)pyrimidine-4-carbonyl)benzo[d]oxazol-2(3H)-one]
27	Cc1cc(C(=O)c2cc(Nc3ccc4c(c3)CC3(C4)C(=O)Nc4ncccc43)ncn2)cc2oc(=O)[nH]c12 (centres unmarked) [Example 2, 4-methyl-6-(6-(2′-oxo-1,1′,2′,3-tetrahydrospiro[inden-2,3′-pyrrolo[2,3-b]pyridin]-5-ylamino)pyrimidine-4-carbonyl)benzo[d]oxazol-2(3H)-one]
